The values below are quoted from earlier work in patent US20090317451A1, “PRESSURE-SENSITIVE ADHESIVE FOR SKIN SURFACE AND/OR TRANSDERMAL SUBSTANCE DELIVERY” (priority 2008, published 2009).

Structures can show the parent of a compound that is named as a salt.

For one series the following is noted: in glycerol; Merck 12th edition #886.
For the compound `CC(=O)Oc1ccccc1C(=O)O` [Aspirin, acetylsalicylic acid], the decomposition by moisture result is “glycerol hinders the decomposition”.

The conditions of the next series: solvent(s) in which soluble; Merck 12th edition or other reference.
Regarding `CC(=O)Nc1ccc(O)cc1` [Acetaminophen], the “Reported Solubility” value is “Alcohol”.
In the case of `Nc1nc2c(ncn2COCCO)c(=O)[nH]1` [Acyclovir], the “Reported Solubility” value is on record as “Alcohol”.
`CC(C)(C)NCC(O)c1ccc(O)c(CO)c1` (centres unmarked) [Albuterol]: the “Reported Solubility” value is “Alcohol”.
As to `CC(=O)Oc1ccccc1C(=O)O` [Aspirin, acetylsalicylic acid], the “Reported Solubility” value was “Alcohol”.
`CCOC(=O)c1ccc(N)cc1` [Benzocaine]: the “Reported Solubility” value is listed as “Alcohol”.
On to `CC12CCC(CC1=O)C2(C)C` (centres unmarked) [Camphor], for which the “Reported Solubility” value was “Alcohol”.
In the case of `Cc1cc(C2CCCCC2)n(O)c(=O)c1` [Ciclopirox], the “Reported Solubility” value is “Alcohol”.
Consider `COc1cc(/C=C/C(=O)CC(=O)/C=C/c2ccc(O)c(OC)c2)ccc1O` [Curcumin], for which the “Reported Solubility” value is on record as “Alcohol”.
As to `COc1cccc2c1C(=O)c1c(O)c3c(c(O)c1C2=O)C[C@@](O)(C(=O)CO)C[C@@H]3O[C@H]1C[C@H](N)[C@H](O)[C@H](C)O1` [Doxorubicin], the “Reported Solubility” value is recorded as “Alcohol”.
Take `CC[C@H]1OC(=O)[C@H](C)[C@@H](O[C@H]2C[C@@](C)(OC)[C@@H](O)[C@H](C)O2)[C@H](C)[C@@H](O[C@@H]2O[C@H](C)C[C@H](N(C)C)[C@H]2O)[C@](C)(O)C[C@@H](C)C(=O)[C@H](C)[C@@H](O)[C@]1(C)O` [Erythromycin hydrate]: the “Reported Solubility” value is given as “Alcohol”.
With `CC(=O)OCC(CCn1cnc2cnc(N)nc21)COC(C)=O` [Famciclovir], the “Reported Solubility” value is listed as “Alcohol”.
Take `Oc1ccc(C2CNCCc3c2cc(O)c(O)c3Cl)cc1` (centres unmarked) [Fenoldopam]: the “Reported Solubility” value is “Alcohol”.
Take `O=C(CCCN1CCC(O)(c2ccc(Cl)cc2)CC1)c1ccc(F)cc1` [Haloperidol]: the “Reported Solubility” value is “Alcohol”.
On to `CC(C)Cc1ccc(C(C)C(=O)O)cc1` (centres unmarked) [Ibuprofen], for which the “Reported Solubility” value is recorded as “Alcohol”.
`CC(C)Cn1cnc2c(N)nc3ccccc3c21` [Imiquimod]: the “Reported Solubility” value is recorded as “Glycerol +”.
Turning to `CC(=O)N1CCN(c2ccc(OCC3COC(Cn4ccnc4)(c4ccc(Cl)cc4Cl)O3)cc2)CC1` (centres unmarked) [Ketoconazole], the “Reported Solubility” value was “Alcohol”.
Take `CS(C)(=O)=O` [MSM, dimethyl sulfone, dimethyl sulfone]: the “Reported Solubility” value is “Alcohol”.
As for `Cc1ncc([N+](=O)[O-])n1CCO` [Netronidazole], the “Reported Solubility” value was “Water, alcohol”.
Take `C#C[C@]1(OC(C)=O)CC[C@H]2[C@@H]3CCC4=CC(=O)CC[C@@H]4[C@H]3CC[C@@]21C` [Norethindrone acetate]: the “Reported Solubility” value was “Alcohol”.
For the compound `CC(=O)O[C@H]1C(=O)[C@@]2(C)[C@H]([C@H](OC(=O)c3ccccc3)[C@]3(O)C[C@H](OC(=O)[C@H](O)[C@@H](NC(=O)c4ccccc4)c4ccccc4)C(C)=C1C3(C)C)[C@]1(OC(C)=O)CO[C@@H]1C[C@@H]2O` [Paclitaxel], the “Reported Solubility” value was “Alcohol”.
For the compound `Nc1nc2c(ncn2CCC(CO)CO)c(=O)[nH]1` [Penciclovir], the “Reported Solubility” value is “Water”.
For the compound `CC[C@@H]1C(=O)OC[C@@H]1Cc1cncn1C` [Pilocarpine], the “Reported Solubility” value was “Alcohol”.
With `CC(CN1c2ccccc2Sc2ccccc21)N(C)C` (centres unmarked) [Promethazine], the “Reported Solubility” value is “Alcohol”.
For `CN(C/C=C/C#CC(C)(C)C)Cc1cccc2ccccc12` [Terbinafinehydrochloride], the “Reported Solubility” value is on record as “Alcohol”.

The same series, now with this note: solvent(s) in which soluble; Merck 12th edition or other reference; listed as Liquimod.
As for `CC(C)Cn1cnc2c(N)nc3ccccc3c21` [Imiquimod], the “Reported Solubility” value is reported as “Alcohol”.
